# Reference: ChEMBL document CHEMBL3233012, “Synthesis, antimicrobial and cytotoxic activities of pyrimidinyl benzoxazole, benzothiazole and benzimidazole” (Eur J Med Chem, 2014)
# pIC50: −log10 of the molar value. Active and inactive are the calls of the source. The rule behind the calls is not given here.
# Experiments:
# Staphylococcus aureus [1] = assay: Antimicrobial activity against Staphylococcus aureus at 25 ug/well after 24 hrs by agar well diffusion method; format: functional; conditions: read-out: DIZ
# Staphylococcus aureus [2] = assay: Antimicrobial activity against Staphylococcus aureus at 50 ug/well after 24 hrs by agar well diffusion method; format: functional; conditions: read-out: DIZ
# Staphylococcus aureus [3] = assay: Antimicrobial activity against Staphylococcus aureus at 100 ug/well after 24 hrs by agar well diffusion method; format: functional; conditions: read-out: DIZ
# Escherichia coli [4] = assay: Antimicrobial activity against Escherichia coli at 25 ug/well after 24 hrs by agar well diffusion method; format: functional; conditions: read-out: DIZ
# Escherichia coli [5] = assay: Antimicrobial activity against Escherichia coli at 50 ug/well after 24 hrs by agar well diffusion method; format: functional; conditions: read-out: DIZ
# Escherichia coli [6] = assay: Antimicrobial activity against Escherichia coli at 100 ug/well after 24 hrs by agar well diffusion method; format: functional; conditions: read-out: DIZ
# Pseudomonas aeruginosa [7] = assay: Antimicrobial activity against Pseudomonas aeruginosa at 25 ug/well after 24 hrs by agar well diffusion method; format: functional; conditions: read-out: DIZ
# Pseudomonas aeruginosa [8] = assay: Antimicrobial activity against Pseudomonas aeruginosa at 50 ug/well after 24 hrs by agar well diffusion method; format: functional; conditions: read-out: DIZ
# Pseudomonas aeruginosa [9] = assay: Antimicrobial activity against Pseudomonas aeruginosa at 100 ug/well after 24 hrs by agar well diffusion method; format: functional; conditions: read-out: DIZ
# Aspergillus niger [10] = assay: Antimicrobial activity against Aspergillus niger at 25 ug/well after 48 hrs by agar well diffusion method; format: functional; conditions: read-out: DIZ
# Aspergillus niger [11] = assay: Antimicrobial activity against Aspergillus niger at 50 ug/well after 48 hrs by agar well diffusion method; format: functional; conditions: read-out: DIZ
# Aspergillus niger [12] = assay: Antimicrobial activity against Aspergillus niger at 100 ug/well after 48 hrs by agar well diffusion method; format: functional; conditions: read-out: DIZ
# Penicillium chrysogenum [13] = assay: Antimicrobial activity against Penicillium chrysogenum at 25 ug/well after 48 hrs by agar well diffusion method; format: functional; conditions: read-out: DIZ
# Penicillium chrysogenum [14] = assay: Antimicrobial activity against Penicillium chrysogenum at 50 ug/well after 48 hrs by agar well diffusion method; format: functional; conditions: read-out: DIZ
# Penicillium chrysogenum [15] = assay: Antimicrobial activity against Penicillium chrysogenum at 100 ug/well after 48 hrs by agar well diffusion method; format: functional; conditions: read-out: DIZ
# Staphylococcus aureus [16] = assay: Antimicrobial activity against Staphylococcus aureus ATCC 25923 after 24 hrs by broth dilution method; format: functional; conditions: ATCC 25923, 24 h
# Escherichia coli [17] = assay: Antimicrobial activity against Escherichia coli ATCC 25922 after 24 hrs by broth dilution method; format: functional; conditions: ATCC 25922, 24 h
# Pseudomonas aeruginosa [18] = assay: Antimicrobial activity against Pseudomonas aeruginosa ATCC 27853 after 24 hrs by broth dilution method; format: functional; conditions: ATCC 27853, 24 h
# Aspergillus niger [19] = assay: Antimicrobial activity against Aspergillus niger after 24 hrs by broth dilution method; format: functional
# Penicillium chrysogenum [20] = assay: Antimicrobial activity against Penicillium chrysogenum after 24 hrs by broth dilution method; format: functional
# Staphylococcus aureus [21] = assay: Antimicrobial activity against Staphylococcus aureus ATCC 25923 after 24 hrs; format: functional; conditions: ATCC 25923, 24 h
# Escherichia coli [22] = assay: Antimicrobial activity against Escherichia coli ATCC 25922 after 24 hrs; format: functional; conditions: ATCC 25922, 24 h
# Pseudomonas aeruginosa [23] = assay: Antimicrobial activity against Pseudomonas aeruginosa ATCC 27853 after 24 hrs; format: functional; conditions: ATCC 27853, 24 h
# Aspergillus niger [24] = assay: Antimicrobial activity against Aspergillus niger after 24 hrs; format: functional
# Penicillium chrysogenum [25] = assay: Antimicrobial activity against Penicillium chrysogenum after 24 hrs; format: functional
# Penicillium chrysogenum [26] = assay: Ratio of MBC to MIC for Penicillium chrysogenum; format: functional
# Escherichia coli [27] = assay: Ratio of MBC to MIC for Escherichia coli ATCC 25922; format: functional
# Pseudomonas aeruginosa [28] = assay: Ratio of MBC to MIC for Pseudomonas aeruginosa ATCC 27853; format: functional
# Aspergillus niger [29] = assay: Ratio of MBC to MIC for Aspergillus niger; format: functional
# A549 [30] = assay: Cytotoxicity against human A549 cells assessed as reduction in cell viability up to 200 uM after 20 hrs by MTT assay; format: functional, cell-based
# Staphylococcus aureus [31] = assay: Ratio of MBC to MIC for Staphylococcus aureus ATCC 25923; format: functional
# A549 [32] = assay: Cytotoxicity against human A549 cells assessed as reduction in cell viability after 20 hrs by MTT assay; format: functional, cell-based
SMILES,zone of inhibition at 25 µg/disc (Staphylococcus aureus [1]),zone of inhibition at 50 µg/disc (Staphylococcus aureus [2]),zone of inhibition at 100 µg/disc (Staphylococcus aureus [3]),zone of inhibition at 25 µg/disc (Escherichia coli [4]),zone of inhibition at 50 µg/disc (Escherichia coli [5]),zone of inhibition at 100 µg/disc (Escherichia coli [6]),zone of inhibition at 25 µg/disc (Pseudomonas aeruginosa [7]),zone of inhibition at 50 µg/disc (Pseudomonas aeruginosa [8]),zone of inhibition at 100 µg/disc (Pseudomonas aeruginosa [9]),zone of inhibition at 25 µg/disc (Aspergillus niger [10]),zone of inhibition at 50 µg/disc (Aspergillus niger [11]),zone of inhibition at 100 µg/disc (Aspergillus niger [12]),zone of inhibition at 25 µg/disc (Penicillium chrysogenum [13]),zone of inhibition at 50 µg/disc (Penicillium chrysogenum [14]),zone of inhibition at 100 µg/disc (Penicillium chrysogenum [15]),MIC (Staphylococcus aureus [16]),MIC (Escherichia coli [17]),MIC (Pseudomonas aeruginosa [18]),MIC (Aspergillus niger [19]),MIC (Penicillium chrysogenum [20]),further results
Cc1cc(SCc2nc3ccccc3s2)nc(SCc2nc3ccccc3s2)n1,21 mm,23 mm,25 mm,24 mm,28 mm,30 mm,19 mm,21 mm,24 mm,24 mm,25 mm,28 mm,30 mm,32 mm,35 mm,50 µg/mL,100 µg/mL,50 µg/mL,50 µg/mL,50 µg/mL,MBC (Staphylococcus aureus [21]): 200 µg/mL; MBC (Escherichia coli [22]): > 200 µg/mL; MBC (Pseudomonas aeruginosa [23]): 200 µg/mL; MFC (Aspergillus niger [24]): > 200 µg/mL; MFC (Penicillium chrysogenum [25]): 200 µg/mL; Ratio (Penicillium chrysogenum [26]): >2; Ratio (Escherichia coli [27]): >2; Ratio (Pseudomonas aeruginosa [28]): >2; Ratio (Aspergillus niger [29]): >2; Activity (A549 [30]): inactive; Ratio (Staphylococcus aureus [31]): >2
Cc1cc(Sc2nc3ccccc3s2)nc(SCc2nc3ccccc3s2)n1,10 mm,12 mm,16 mm,14 mm,17 mm,20 mm,13 mm,15 mm,16 mm,10 mm,12 mm,15 mm,12 mm,13 mm,15 mm,,,,,,"inhibition (A549 [32]): Dose-dependent effect; pIC50 (A549 [32]; A549, 20 h): 4.15"
Cc1cc(SCc2nc3ccccc3[nH]2)nc(SCc2nc3ccccc3[nH]2)n1,23 mm,26 mm,29 mm,28 mm,32 mm,35 mm,22 mm,25 mm,27 mm,27 mm,30 mm,32 mm,33 mm,35 mm,38 mm,12.5 µg/mL,50 µg/mL,12.5 µg/mL,12.5 µg/mL,12.5 µg/mL,MBC (Staphylococcus aureus [21]): 25 µg/mL; MBC (Escherichia coli [22]): 200 µg/mL; MBC (Pseudomonas aeruginosa [23]): 100 µg/mL; MFC (Aspergillus niger [24]): 100 µg/mL; MFC (Penicillium chrysogenum [25]): 25 µg/mL; Ratio (Penicillium chrysogenum [26]): 2; Activity (A549 [30]): inactive; Ratio (Staphylococcus aureus [31]): 2
